Experimental data reported in US5853731A, “Thromboxane A2 Receptor antagonism and antioxidant action of cinnamophilin and its derivatives, their pharmaceutical compositions and uses” (National Science Council, priority 1997, dated 1998).

Columns and labels:
rabbit platelets = test: Aggregation of washed rabbit platelet suspension induced by AA, PAF, collagen, U-46619, ADP and thrombin; assay type: cell-based
Procedure: A. Preparation of aggregation inducing agent
1. Collagen (bovine tendon) in 15 mM aqueous acetic acid was homogenized at 4° C. to form a well dispersed suspension in 1 mg/ml and stocked at -70° C. Before using, it was thawed and well homogenized.
2. PAF was dissolved in CCl4 and stocked at […] Before using, it was diluted with deionized water.
3. […] and sodium arachidonate (AA) were dissolved in deionized water for use.
B. Preparation of platelets
A suspension of platelets was prepared according to the reported method. EDTA (100 mM) and the blood obtained from rabbit's ear vein were mixed in the ratio of 1:4, and immediately centrifuged (120× g) at room temperature for 10 minutes. Platelet-rich plasma was subjected to further centrifuge (500× g) for another 10 minutes. After the plasma was removed, the platelets in the lower layer were suspended in the Tyrode solution containing EDTA (2 mM) and bovine serum albumin (3.5 mg/ml), and subjected to centrifuge (500× g) again for 10 minutes. The platelets obtained were suspended in a Tyrode solution containing no EDTA, and was adjusted to about 4.5×10^8 cells/ml by a cell counter. 1 mM of calcium ion (Ca^2+) was added to the suspension. 30 minutes after the addition, the experiment was conducted. The composition of Tyrode […]: NaCl (136.9), KCl (2.7), NaH2 PO4 (0.4), NaHCO3 (11.9), glucose (11.1).
C. Platelet aggregation and ATP release reaction test
The method reported by Born (J. Physiol. 168, 178, 1963) was used to determine the platelet aggregation by a Lumi-aggregometer (Model 1020, Payton, Canada). Platelet suspension (0.4 ml) was added into a small glass tube coated with silicone, and stirred at 900 rpm with a small magnetic stirrer. Unless otherwise specified, the antagonist was added 1 minute before the inducing agent, and all the reactions were carried out at 37° C. The aggregation was calculated by following formula: […]
aggregation (% )=(light absorption before adding inducing agent-light absorption after adding inducing agent)/(light absorption before adding inducing agent-light absorption of Tyrode solution)×100% […]
| Platelets were precincubated with 1a, 1b, 1c, 1e, 2 or DMSO (0.5%, | control) at 37° C. for 3 min, then the inducer was added.

rat thoracic aorta = test: Rat aortic contraction caused by norepinephrine and high potassium (KCl); assay type: cell-based, Wistar rat; details: 15 min; for K+ contraction (%), Tonic: K+ (80 mM); for norepinephrine contraction (%), Phrase (phasic) / norepinephrine contraction (%), Tonic: norepinephrine 3 μM
Procedure: A. Rat Aortic Contraction
Wistar rats of either sex weighing 250 g to 300 g were killed by a blow to the head. The thoracic aorta was isolated and excess fat and connective tissue were removed. Vessels were cut into rings of about 5 mm in length and mounted in organ baths containing 5 ml Krebs solution of the following composition (mM): NaCl (118.4), KCl (4.7), CaCl (1.9), MgSO4 (1.2), KH2 PO4 (1.2), NaHCO3 (25.0) and glucose (11.7). The tissue bath solution was maintained at 37° C. and gassed with 95% O2 :5% CO2 mixture. Two stainless steel hooks were inserted into the aortic lumen, one was fixed while the other was connected to a transducer. Aortae were equilibrated in the medium for 90 min with three changes of Krebs solution and maintained under an optimal tension of 1 g before specific experimental protocols were initiated.
Contraction was recorded isometrically via a force-displacement transducer connected to a Grass polygraph. Aortae were allowed to preincubate for 15 minutes with cinnamophilin before generating the cumulative concentration-response curve with each agonist for 15-30 min at 3 min intervals. Results are expressed as a percentage of the maximal control response for each agonist.
Rat aorta ring were preincubated with lignans or DMSO (0.1% control) at
37° C. for 15 min, then the inducer was added.

[1] = tested on: platelet aggregation, aortic contraction, tracheal contraction; test: Bioassay / pharmacological evaluation (platelet aggregation, rat aortic contraction, guinea-pig tracheal contraction); details: rat aortic and guinea-pig tracheal contraction bioassays
Procedure: The methods of isolation might be performed using polar organic solvent such as methanol, ethanol and acetone. Solvent of the extract from root parts of Cinnamomum philippinense was evaporated and the residue was suspended in water, and extracted with chloroform or other non-polar organic solvents. Bioassay was performed by using this chloroform layer in platelet aggregation test, rat aortic contraction, and guinea-pig tracheal contraction. Purified bioactive components were obtained through silica gel column, then afforded cinnamophilin (1), two known lignan compounds as (+)-guaiacin (3), meso-dihydroguaiaretic acid (2) and an aromatic acid as vallinic acid.
Compounds II-V wherein R1 represents H, C1-8 alkyl, --OCOR, wherein R2 represents OH, COO--, wherein R represents H, C1-8 alkyl. Preferred substituted alkyl group is 8 carbon number, optical alkyl group is 6 carbon number. Structures of these compounds were elucidated on the basis of their IR, UV, ^1 H-NMR, ^13 C-NMR, Mass spectra as well as the elemental analytical data.

[2] = target: thromboxane A2 synthetase; details: Hoet et al., Blood 75, 646-53, 1990; read-out: IC50, thromboxane A2 synthetase inhibition; cited from earlier work
thromboxane receptor = details: Hoet et al., Blood 75, 646-53, 1990; read-out: IC50, thromboxane receptor inhibition; cited from earlier work
[3] = Antioxidation (absorbance at 500 nm, FeSCN method); details: 20 μM
Description: (Absorbance at 500 nm, using FeSCN method)

[4] = compared with BHA or BHT; background statement; cited from earlier work
[5] = inducer AA (100 μM), conc 20 μM, control 92.1 ± 1.3
[6] = inducer ADP (20 μM), conc 300 μM, control 81.6 ± 3.0
[7] = inducer PAF (2 ng/ml), conc 300 μM, control 91.7 ± 2.0
[8] = inducer U-46619 (1 μM), conc 200 μM, control 89.4 ± 1.2
[9] = inducer collagen (10 μg/ml), conc 50 μM, control 93.6 ± 1.0
[10] = inducer collagen (10 μg/ml), conc 100 μM, control 93.6 ± 1.0
[11] = inducer collagen (10 μg/ml), conc 200 μM, control 93.6 ± 1.0
[12] = inducer thrombin (0.1 U/ml), conc 300 μM, control 94.8 ± 2.0
[13] = inducer AA (100 μM), conc 50 μM, control 92.1 ± 1.3
[14] = inducer AA (100 μM), conc 100 μM, control 92.1 ± 1.3
[15] = inducer AA (100 μM), conc 200 μM, control 92.1 ± 1.3

| SMILES | Aggregation (%) (rabbit platelets; [5]) | Aggregation (%) (rabbit platelets; [6]) | Aggregation (%) (rabbit platelets; [7]) | Aggregation (%) (rabbit platelets; [8]) | Aggregation (%) (rabbit platelets; [9]) | Aggregation (%) (rabbit platelets; [10]) | Aggregation (%) (rabbit platelets; [11]) | Aggregation (%) (rabbit platelets; [12]) | K+ contraction (%), Tonic (rat thoracic aorta; conc 10 μM) [%] | norepinephrine contraction (%), Phrase (phasic) (rat thoracic aorta; conc 10 μM) [%] | norepinephrine contraction (%), Tonic (rat thoracic aorta; conc 10 μM) [%] | Aggregation (%) (rabbit platelets; [13]) | Aggregation (%) (rabbit platelets; [14]) | Aggregation (%) (rabbit platelets; [15]) | also measured |
| --- | --- | --- | --- | --- | --- | --- | --- | --- | --- | --- | --- | --- | --- | --- | --- |
| COc1cc(C[C@@H](C)[C@@H](C)Cc2ccc(O)c(OC)c2)ccc1O [Compound 2, meso-dihydroguaiaretic acid, reference compound] | 0.0 ± 0.0 | 67.9 ± 8.4 | 91.7 ± 2.0 | 88.6 ± 3.2 | 79.7 ± 4.7 | 16.4 ± 4.4 | 0.0 ± 0.0 | 85.3 ± 6.6 | 14.8 ± 2.1 | 111.1 ± 6.2 | 78.4 ± 8.8 | – | – | – | Aggregation (%) (rabbit platelets; inducer AA (100 μM), conc 5 μM, control 92.1 ± 1.3): 76.0 ± 7.8%; Aggregation (%) (rabbit platelets; inducer AA (100 μM), conc 10 μM, control 92.1 ± 1.3): 5.9 ± 5.3%; K+ contraction (%), Tonic (rat thoracic aorta; conc 1 μM): 74.0 ± 4.1%; K+ contraction (%), Tonic (rat thoracic aorta; conc 3 μM): 36.5 ± 3.2%; K+ contraction (%), Tonic (rat thoracic aorta; conc 5 μM): 25.7 ± 3.9%; bioactivity [1]: has not been observed |
| COc1ccc(CC(C)C(C)C(=O)c2ccc(OC)c(OC)c2)cc1OC (stereo not shown) [Compound 4, dimethylcinnamophilin] | 87.8 ± 3.3 | 30.7 ± 13.0 | 0.0 ± 0.0 | 86.5 ± 1.7 | 86.2 ± 4.7 | 80.3 ± 3.6 | 7.5 ± 6.4 | 89.7 ± 3.5 | 10.5 | 61.3 ± 2.1 | 48.6 ± 3.3 | 75.8 ± 10.6 | 37.7 ± 1.6 | 0.0 ± 0.0 | – |
| COc1cc(CC(C)C(C)C(=O)c2ccc(OC(C)=O)c(OC)c2)ccc1OC(C)=O (stereo not shown) [Compound 5] | 86.3 ± 4.6 | 60.7 ± 12.0 | 45.2 ± 9.2 | 88.4 ± 4.3 | 93.4 ± 1.2 | 80.6 ± 4.7 | 8.4 ± 7.3 | 94.9 ± 1.0 | 18.4 ± 4.7 | 92.2 ± 13.4 | 64.6 ± 9.1 | 57.8 ± 2.8 | 0.0 ± 0.0 | – | – |
| COc1cc(CC(C)C(C)C(O)c2ccc(O)c(OC)c2)ccc1O (stereo not shown) [Compound 7, cinnamophilinol] | 86.3 ± 1.0 | 77.3 ± 4.0 | 79.7 ± 6.6 | 90.4 ± 1.4 | 89.7 ± 3.4 | 75.5 ± 2.4 | 0.0 ± 0.0 | 73.2 ± 6.8 | 66.8 ± 2.2 | 100 | 113.3 ± 7.5 | 75.5 ± 6.2 | 10.4 ± 9.0 | 0.0 ± 0.0 | K+ contraction (%), Tonic (rat thoracic aorta; conc 50 μM): 51.0 ± 4.4%; norepinephrine contraction (%), Phrase (phasic) (rat thoracic aorta; conc 50 μM): 95.5 ± 3.2%; norepinephrine contraction (%), Tonic (rat thoracic aorta; conc 50 μM): 85.3 ± 10.4% |
| O=C(O)CCCCO/N=C(/c1cccnc1)c1cccc(C(F)(F)F)c1 [ridogrel] | – | – | – | – | – | – | – | – | – | – | – | – | – | – | IC50 [2]: 5 nM; IC50 (thromboxane receptor): 2000 nM |
| Cc1c(C)c2c(c(C)c1O)CCC(C)(CCCC(C)CCCC(C)CCCC(C)C)O2 (stereo not drawn) [vitamin E, α-tocopherol, reference compound] | – | – | – | – | – | – | – | – | – | – | – | – | – | – | Absorbance at 500 nm ([3]; induce time 0, control 0.047): 0.026; Absorbance at 500 nm ([3]; induce time 4, control 0.084): 0.069; Absorbance at 500 nm ([3]; induce time 7, control 0.201): 0.083; Absorbance at 500 nm ([3]; induce time 10, control 0.343): 0.108; Absorbance at 500 nm ([3]; induce time 16): 0.176; Absorbance at 500 nm ([3]; induce time 19): 0.226; Absorbance at 500 nm ([3]; induce time 22): 0.297; Absorbance at 500 nm ([3]; induce time 25): 0.487; Absorbance at 500 nm ([3]; induce time 28): 1.024; antioxidative action on fatty oils [4]: lower than BHA (t-butylhydroxyanisole) or BHT (t-butylhydroxy toluene) |
